Toxic doses and inconclusive results are not listed.
Tested on: CD2F1 mice, L1210 leukemia ip, survival T/C
Experiment: NCI In Vivo Anticancer Drug Screen. Data for tumor model L1210 Leukemia (intraperitoneal) in CD2F1 (CDF1) mice
Settings: endpoint: mean survival time, higher = longer survival
How it was run: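 Activity against a transplanted murine tumor was judged by comparing the compound group with a vehicle group. The outcome in the treated animals was divided by that in the controls.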

[1] = dose: 100.0 mg/kg/injection, schedule: Q04DX003 (ip), vehicle: saline with Tween-80
[2] = dose: 200.0 mg/kg/injection, schedule: Q04DX003 (ip), vehicle: saline with Tween-80
[3] = dose: 400.0 mg/kg/injection, schedule: Q04DX003 (ip), vehicle: saline with Tween-80
[4] = dose: 100.0 mg/kg/injection, schedule: Q01DX009 (ip), vehicle: saline with Tween-80
[5] = dose: 200.0 mg/kg/injection, schedule: Q01DX009 (ip), vehicle: saline with Tween-80
[6] = dose: 400.0 mg/kg/injection, schedule: Q01DX009 (ip), vehicle: saline with Tween-80
[7] = dose: 100.0 mg/kg/injection, schedule: Q01DX009 (ip), vehicle: Klucel (hydroxypropylcellulose) (HPC)
[8] = dose: 200.0 mg/kg/injection, schedule: Q01DX009 (ip), vehicle: Klucel (hydroxypropylcellulose) (HPC)
[9] = dose: 100.0 mg/kg/injection, schedule: Q01DX001 (ip), vehicle: saline
[10] = dose: 200.0 mg/kg/injection, schedule: Q01DX001 (ip), vehicle: saline

In the case of CC(C)NC(=O)CCSCCC(=O)NC(C)C, the T/C (dose: 25.0 mg/kg/injection, schedule: Q04DX002 (ip), vehicle: other) is reported as 89 % of control, the T/C (dose: 50.0 mg/kg/injection, schedule: Q04DX002 (ip), vehicle: other) is reported as 93 % of control and the T/C (dose: 100.0 mg/kg/injection, schedule: Q04DX002 (ip), vehicle: other) is reported as 97 % of control. For the same molecule, the T/C (dose: 200.0 mg/kg/injection, schedule: Q04DX002 (ip), vehicle: other) was 89 % of control.
With CC1CN1P(=O)(N1CC1C)N1CC1C (stereo not drawn) the T/C (dose: 9.5 mg/kg/injection, schedule: Q01DX001 (ip), vehicle: saline) was 101 % of control, the T/C (dose: 19.0 mg/kg/injection, schedule: Q01DX001 (ip), vehicle: saline) was 106 % of control and the T/C (dose: 38.0 mg/kg/injection, schedule: Q01DX001 (ip), vehicle: saline) was 117 % of control.
In the case of CC(C)(CCl)c1ccc(C(C)(C)CCl)cc1, the T/C [1] is reported as 100 % of control, the T/C [2] is reported as 91 % of control and the T/C [3] is reported as 100 % of control.
In the case of CCOc1ccccc1/C=C1\N=C(c2ccc([N+](=O)[O-])cc2)OC1=O, the T/C (dose: 100.0 mg/kg/injection, schedule: Q04DX002 (ip), vehicle: saline with Tween-80) is reported as 95 % of control, the T/C (dose: 200.0 mg/kg/injection, schedule: Q04DX002 (ip), vehicle: saline with Tween-80) is reported as 91 % of control and the T/C (dose: 400.0 mg/kg/injection, schedule: Q04DX002 (ip), vehicle: saline with Tween-80) is reported as 100 % of control.
For CC(=O)Nc1cc(C)c(C)cc1[N+](=O)[O-], the T/C (dose: 100.0 mg/kg/injection, schedule: Q01DX001 (ip), vehicle: saline with Tween-80) was 98 % of control, the T/C (dose: 200.0 mg/kg/injection, schedule: Q01DX001 (ip), vehicle: saline with Tween-80) was 101 % of control and the T/C (dose: 400.0 mg/kg/injection, schedule: Q01DX001 (ip), vehicle: saline with Tween-80) was 98 % of control.
Nc1nc(Br)c2ccccc2c1-c1ccc([N+](=O)[O-])cc1 was tested, and the T/C (dose: 50.0 mg/kg/injection, schedule: Q04DX003 (ip), vehicle: DMSO) was 98 % of control, the T/C (dose: 100.0 mg/kg/injection, schedule: Q04DX003 (ip), vehicle: DMSO) was 96 % of control and the T/C (dose: 200.0 mg/kg/injection, schedule: Q04DX003 (ip), vehicle: DMSO) was 95 % of control. For the same molecule, the T/C (dose: 400.0 mg/kg/injection, schedule: Q04DX003 (ip), vehicle: DMSO) was 95 % of control.
In the case of Oc1c(CN2CCOCC2)cc(CN2CCOCC2)cc1CN1CCOCC1, the T/C [4] is reported as 100 % of control, the T/C [5] is reported as 95 % of control and the T/C [6] is reported as 100 % of control.
With C[C@]12CC[C@@H]3c4ccc(O)cc4CC[C@H]3[C@@H]1CC[C@@H]2O the T/C (dose: 6.25 mg/kg/injection, schedule: Q01DX009 (ip), vehicle: Klucel (hydroxypropylcellulose) (HPC)) was 94 % of control, the T/C (dose: 12.5 mg/kg/injection, schedule: Q01DX009 (ip), vehicle: Klucel (hydroxypropylcellulose) (HPC)) was 100 % of control and the T/C (dose: 25.0 mg/kg/injection, schedule: Q01DX009 (ip), vehicle: Klucel (hydroxypropylcellulose) (HPC)) was 97 % of control. The T/C (dose: 50.0 mg/kg/injection, schedule: Q01DX009 (ip), vehicle: Klucel (hydroxypropylcellulose) (HPC)) was 96 % of control, the T/C [7] was 105 % of control and the T/C [8] was 96 % of control.
With N#CC1=C(C#N)C(=O)c2ccccc2C1=O the T/C (dose: 25.0 mg/kg/injection, schedule: Q01DX009 (ip), vehicle: saline with Tween-80) was 98 % of control, the T/C (dose: 50.0 mg/kg/injection, schedule: Q01DX009 (ip), vehicle: saline with Tween-80) was 97 % of control and the T/C [4] was 88 % of control.
With CC(=O)Nc1cc(C)ccc1O the T/C [4] was 98 % of control, the T/C [1] was 96 % of control and the T/C [5] was 95 % of control. For the same molecule, the T/C [2] was 104 % of control, the T/C [6] was 87 % of control and the T/C [3] was 90 % of control.
N/C(=N\O)c1cn(C2OC(CO)C(O)C2O)c2ncncc12 (stereo not drawn) was tested, and the T/C (dose: 25.0 mg/kg/injection, schedule: Q01DX009 (ip), vehicle: saline) was 159 % of control, the T/C (dose: 50.0 mg/kg/injection, schedule: Q01DX009 (ip), vehicle: saline) was 168 % of control and the T/C (dose: 100.0 mg/kg/injection, schedule: Q01DX009 (ip), vehicle: saline) was 102 % of control.
O=C(O)CCCC1CCc2ccccc2C1 (stereo not drawn) was tested, and the T/C [7] was 96 % of control, the T/C [8] was 102 % of control and the T/C (dose: 400.0 mg/kg/injection, schedule: Q01DX009 (ip), vehicle: Klucel (hydroxypropylcellulose) (HPC)) was 97 % of control.
In the case of O=C(CN1C(=O)CCC1=O)NCCc1cccc(OCc2ccccc2)c1, the T/C [4] is reported as 94 % of control, the T/C [1] is reported as 97 % of control and the T/C [5] is reported as 89 % of control. For the same molecule, the T/C [2] was 97 % of control, the T/C [6] was 91 % of control and the T/C [3] was 97 % of control.
With c1ccc(CNCCCNCc2ccccn2)nc1 the T/C [9] was 100 % of control and the T/C [10] was 100 % of control.
With O=S1(=O)CCC(C2CCCCC2)C1 (stereo not drawn) the T/C [9] was 95 % of control, the T/C [10] was 98 % of control and the T/C (dose: 400.0 mg/kg/injection, schedule: Q01DX001 (ip), vehicle: saline) was 106 % of control.
In the case of NC/C(=N\Nc1ccc([N+](=O)[O-])cc1[N+](=O)[O-])c1ccccc1, the T/C (dose: 100.0 mg/kg/injection, schedule: Q04DX003 (ip), vehicle: saline) is reported as 103 % of control, the T/C (dose: 200.0 mg/kg/injection, schedule: Q04DX003 (ip), vehicle: saline) is reported as 100 % of control and the T/C (dose: 400.0 mg/kg/injection, schedule: Q04DX003 (ip), vehicle: saline) is reported as 97 % of control.

From PubChem BioAssay AID256 (DTP/NCI, 2004)
